Measurements: patent US4097599A, “Triazoles” (Commonwealth Scientific and Industrial Research Organization, priority 1973, dated 1978)
Values after ≈ are worked out from the molar mass of the structure shown. Where two headings read alike, the source gives them in different places.

Columns and labels:
[1] = test system: Boophilus microplus larvae; test: Acaricide testing: toxicity to Boophilus microplus larvae; format: in vivo, Boophilus microplus (cattle tick); settings: 7-14 day old larvae, packets, 24 hours
Experimental: (§1) The new compounds were examined in several biological tests. The acaricidal activity was measured against the larvae of the Australian cattle tick (Boophilus microplus). The specificity of interference of the designed compounds with mitochondrial oxidative processes was examined by the differential inhibition of growth of Saccharomyces cerevisiae with ethanol or glucose as substrates.
The determinations of mortalities were carried out in packets on 7-14 day old larvae of the cattle tick Boophilus microplus using the method described by Stone^1. Mortalities were counted 24 hours after the application of the compounds. The activities of DDT and BTS 27271 were also determined.

[2] = test system: rat liver monoamine oxidase; test: Inhibition of rat liver monoamine oxidase; format: biochemical; settings: for Relative inhibition of rat liver monoamine oxidase: relative to I50 value of BTS 27271 = 100
From the text: (§2) Other biochemical tests carried out with the compounds were the measurement of their effects on the uncoupling of oxidative phosphorylation and the inhibition of energy transfer in the mitochondrial respiration sequences. In the light of a known report on the action of certain acaricides as monoamine oxidase (MAO) inhibitors, the new structures were also examined in this test, and their activity compared to the reported MAO inhibition shown by the potent acaricide N-(2,4-dimethylphenyl)-N'-methyl formamidine (BTS 27271).
Purified intact rat liver mitochondria were disrupted by treating with triton X-100 (1% w/v) for 20 mins. at 0°-4°. The MAO activity was measured spectrophotometrically at 360 nm as described by Weissbach, H. et al. ^10. The activity of BTS 27271 was determined by this method and the enzyme inhibition for other compounds was expressed relative to its I50 value.

Saccharomyces cerevisiae = test: Inhibition of the growth of Saccharomyces cerevisiae on two substrates; format: cell-based, Saccharomyces cerevisiae strain L410; settings: 24 hours
Experimental: as §1
Saccharamyces cerevisiae, strain L410, was grown aerobically at 28° in a salts medium containing 1% Difco yeast extract and 0.5% bacteriological peptone as described by Wallace, P. G. et al.^2 with either ethanol (1% w/v) or glucose (5% w/v) as carbon and energy sources. Cells were innoculated at a concentration of 10 μg of dry weight per ml and grown for 24 hours. Growth was measured as described by Clark-Walker et al.^3, and compared with control incubations.

Tetranychus urticae = test: Activity against the two-spotted spider mite on discs of dwarf bean leaf; format: in vivo; settings: read-out: LC50, Tetranychus urticae
Experimental: Compounds of the invention were tested for their activity against the two-spotted spider mite, Tetranychus urticae. In this test, discs of dwarf bean leaf were treated with varying known amounts of the test compound. On each disc, 15 mites were placed and the sample kept under cover. Mortalities were determined after 24 hours and compared with […] controls.

[3] = test system: oxidative phosphorylation in rat liver mitochondria; test: Oxidative phosphorylation in rat liver mitochondria (uncoupling, State 3 respiration); format: biochemical; settings: for EC50: concentration for 50% effect, read-out: Uncoupling activity of oxidative phosphorylation in rat liver mitochondria, I50
From the text: as §2
Rat liver mitochondria were prepared by the method described by Hogeboon^6 in a medium containing 0.25 M sucrose; 10 mM tris-HCl (pH 7.40); 0.5 mM EDTA and finally suspended in the same medium plus bovine-serum albumin (2 mg/ml). Oxidative phosphorylation was measured polarographically at 30°, as described by Estabrook, R. W. et al.^7. The incubation medium contained 0.25 M sucrose; 10 mM tris-HCl (pH 7.4); 5 mM K2 HPO4 (pH 7.4); 0.5 mM EDTA and bovine-serum albumin (2 mg/ml). DNP was added and control tests were carried out using n-octyl guanidine ^8 and either pyruvate or succinate as substrates.
(§3) State 3 and state 4 respiration rates were determined by the method of Chance, B. et al.^9. Percentage uncoupling in the presence of antimetabolities was calculated from the equation [formula] Percentage inhibition of coupled respiration was calculated from the equation [formula] Relative uncoupling and n-octylguanidine like effects are compared as the concentrations required to give 50% effects (I50).

yeast mitochondria = test: Oxidative phosphorylation in yeast mitochondria (uncoupling, State 3 respiration); format: biochemical, yeast (Saccharomyces cerevisiae)
From the text: as §2
Yeast mitochondria were prepared as described by Watson, K. et al.^4. The effects of anti-metabolites on oxidative phosphorylation were determined in a polarograph cell at 30° in the medium described by Haslam, J. M. et al.^5. Substrates were either succinate (4.0 mM) or ethanol (0.3M). Other additions, where indicated, were Sigma ADP and 2:4-dinitrophenol (DNP).
as §3

[4] = ethanol substrate, read-out: Inhibition of the growth of Saccharomyces cerevisiae, ethanol, I50
[5] = glucose substrate, read-out: Inhibition of the growth of Saccharomyces cerevisiae, glucose, I50

SMILES	Relative inhibition of rat liver monoamine oxidase [2]	IC50 (Saccharomyces cerevisiae; [4]) [µM]	LC50, toxicity to Boophilus microplus larvae [1] [%]	further results
Cc1ccccc1-n1cnnc1C(F)(F)F [Example 4, 4-(2-methylphenyl)-3-trifluoromethyl-1,2,4-triazole]	2.5	–	0.52	–
Cc1cc(Cl)ccc1-n1cnnc1C(F)(F)F [Example 10, 4-(4-Chloro-2-methylphenyl)-3-trifluoromethyl-1,2,4-triazole]	–	–	0.87	–
FC(F)(F)c1nncn1-c1ccccc1 [Example 1, 4-Phenyl-3-trifluoromethyl-1,2,4-triazole]	0	2500	0.62	–
Cc1ccc(-n2cnnc2C(F)(F)F)c(C)c1 [Example 9, 4-(2,4-Dimethylphenyl)-3-trifluoromethyl-1,2,4-triazole]	–	–	1.55	–
CN=CNc1ccc(C)cc1C [BTS 27271, N-(2,4-dimethylphenyl)-N'-methyl formamidine, reference compound]	100	–	0.2	–
FC(F)(F)c1n[nH]c(-c2ccccc2)n1 [20(c), 3(5)-phenyl-5(3)-trifluoromethyl-1,2,4-triazole]	0	300	0.60	EC50 [3]: 80 µM; Uncoupling activity in rat liver mitochondrial preparations (result in words) [3]: high uncoupling activity; IC50 (Saccharomyces cerevisiae; [5]): 1000 µM; Uncoupling activity in yeast mitochondrial preparations (result in words) (yeast mitochondria): high uncoupling activity
FC(F)(F)c1nnc(-c2ccc(Cl)cc2)n1-c1ccc(Cl)cc1 [Example 12, 3,4-bis(4-chlorophenyl)-5-trifluoromethyl-1,2,4-triazole]	200	–	> 1	Inhibition of rat liver monoamine oxidase (result in words) [2]: potent inhibition
Clc1ccc(C(c2ccc(Cl)cc2)C(Cl)(Cl)Cl)cc1 [DDT, reference compound]	–	–	0.78	LC50 (Tetranychus urticae; 24 h): > 20000 µg/mL
FC(F)(F)c1n[nH]c(-c2ccc(Cl)c(Cl)c2)n1 [20(e), 3(5)-(3,4-dichlorophenyl)-5(3)-trifluoromethyl-1,2,4-triazole]	42	10	0.38	Inhibition of rat liver monoamine oxidase (result in words) [2]: potent inhibition; EC50 [3]: 2.3 µM; Uncoupling activity in rat liver mitochondrial preparations (result in words) [3]: high uncoupling activity; IC50 (Saccharomyces cerevisiae; [5]): 300 µM; Uncoupling activity in yeast mitochondrial preparations (result in words) (yeast mitochondria): high uncoupling activity
CC(C)(C)c1ccccc1-n1cnnc1C(F)(F)F [Example 5, 4-(2-t-butylphenyl)-3-trifluoromethyl-1,2,4-triazole]	0	100	2.16	IC50 (yeast mitochondria; yeast mitochondria, read-out: Half-maximal effect on State 3 respiration by yeast mitochondria): 160 µM

Now from value to compound, other results behind:

Relative inhibition of rat liver monoamine oxidase [2]	IC50 (Saccharomyces cerevisiae; [4]) [µM]	SMILES	LC50, toxicity to Boophilus microplus larvae [1] [%]	further results
0	–	FC(F)(F)c1nc[nH]n1 [Example 16, 3-trifluoromethyl-1,2,4-triazole]	0.50	–
2	2500	FC(F)(F)c1nncn1-c1ccc(Cl)cc1 [Example 3, 4-(4-chlorophenyl)-3-trifluoromethyl-1,2,4-triazole]	0.60	–
5	–	COc1ccccc1-n1cnnc1C(F)(F)F [Example 6, 4-(2-methoxyphenyl)-3-trifluoromethyl-1,2,4-triazole]	0.38	–
1	–	CC(C)(C)c1ccc(-n2cnnc2C(F)(F)F)cc1 [Example 8, 4-(4-t-butylphenyl)-3-trifluoromethyl-1,2,4-triazole]	1.8	–
2.5	–	CCOc1ccc(-n2cnnc2C(F)(F)F)cc1 [Example 7, 4-(4-ethoxyphenyl)-3trifluoromethyl-1,2,4-triazole]	0.61	LC50 (Tetranychus urticae; discs of dwarf bean leaf, 24 hours): 1400 µg/mL (≈ 5.44 mM)
2	–	Cc1nnc(C(F)(F)F)n1-c1ccccc1 [Example 11, 3-Methyl-4-phenyl-5-trifluoromethyl-1,2,4-triazole]	0.50	–
400	–	FC(F)(F)c1ncn(-c2ccccc2)n1 [Example 13, 1-phenyl-3-trifluoromethyl-1,2,4-triazole]	2.75	Inhibition of rat liver monoamine oxidase (result in words) [2]: potent inhibition; Inhibition of rat liver monoamine oxidase compared with BTS 27271 ([2]; times that determined for BTS 27271 in a similar test): four times
27	30	FC(F)(F)c1n[nH]c(-c2ccc(Cl)cc2)n1 [20(d), 3(5)-(4-chlorophenyl)-5(3)-trifluoromethyl-1,2,4-triazole]	0.45	Inhibition of rat liver monoamine oxidase (result in words) [2]: potent inhibition; EC50 [3]: 12 µM; Uncoupling activity in rat liver mitochondrial preparations (result in words) [3]: high uncoupling activity; IC50 (Saccharomyces cerevisiae; [5]): 300 µM; Uncoupling activity in yeast mitochondrial preparations (result in words) (yeast mitochondria): high uncoupling activity
